Columns and labels:
AKT2 = target: T1, AKT2 (Homo sapiens, UniProt P31751); assay: Live cell target engagement by NanoBRET competitive probe displacement, AKT2; assay type: binding; settings: transfected HEK293 cells, 2 h at 37° C., read-out: AKT2 IC50: GeoMean IC50
T1 construct: expressed in transfected cells; host or cells: HEK293

AKT1 E17K = target: T2, AKT1 E17K (Homo sapiens, UniProt P31749, E17K); assay: Live cell target engagement by NanoBRET competitive probe displacement, AKT1 E17K; assay type: binding; settings: transfected HEK293 cells, 2 h at 37° C., read-out: AKT1 E17K IC50: GeoMean IC50
T2 construct: expressed in transfected cells; host or cells: HEK293
T2 sequence (P31749 whole entry E17K): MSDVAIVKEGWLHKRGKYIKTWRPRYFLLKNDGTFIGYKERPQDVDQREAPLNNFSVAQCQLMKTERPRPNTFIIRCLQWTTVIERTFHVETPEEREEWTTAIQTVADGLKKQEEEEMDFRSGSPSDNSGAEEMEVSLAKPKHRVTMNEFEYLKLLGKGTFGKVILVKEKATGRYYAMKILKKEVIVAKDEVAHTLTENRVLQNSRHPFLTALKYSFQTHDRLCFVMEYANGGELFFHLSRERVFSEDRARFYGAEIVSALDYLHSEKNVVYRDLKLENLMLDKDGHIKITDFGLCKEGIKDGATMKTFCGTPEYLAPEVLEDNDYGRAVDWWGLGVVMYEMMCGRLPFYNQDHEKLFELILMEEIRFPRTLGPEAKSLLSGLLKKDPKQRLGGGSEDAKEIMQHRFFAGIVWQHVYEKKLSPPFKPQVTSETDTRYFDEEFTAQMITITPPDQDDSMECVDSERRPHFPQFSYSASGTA

[1] = test system: LAPC4 prostate cancer cells, which express the AKT1 E17K allele; assay: Antiproliferative effects in LAPC4 cells (CellTiter Glo, 72 h); assay type: cell-based; settings: Homo sapiens, LAPC4, 72 h, read-out: LAPC4 proliferation IC50: GeoMean IC50
Procedure, shortened: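 Cells grown in IMDM with 12% FBS, seeded at 1,000 cells/well and treated with compound dilutions in DMSO for 72 h. Intracellular ATP read by luminescence. IC50 from a log(inhibitor) vs. response Hill fit.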

AKT1 WT = target: T3, AKT1 WT (Homo sapiens, UniProt P31749); assay: Live cell target engagement by NanoBRET competitive probe displacement, AKT1 WT; assay type: binding; settings: transfected HEK293 cells, 2 h at 37° C., read-out: AKT1 WT IC50: GeoMean IC50
T3 construct: expressed in transfected cells; host or cells: HEK293
T3 sequence (P31749 whole entry): as the sequence (P31749 whole entry E17K) above, with K17E counted along it

T1 sequence (P31751 whole entry): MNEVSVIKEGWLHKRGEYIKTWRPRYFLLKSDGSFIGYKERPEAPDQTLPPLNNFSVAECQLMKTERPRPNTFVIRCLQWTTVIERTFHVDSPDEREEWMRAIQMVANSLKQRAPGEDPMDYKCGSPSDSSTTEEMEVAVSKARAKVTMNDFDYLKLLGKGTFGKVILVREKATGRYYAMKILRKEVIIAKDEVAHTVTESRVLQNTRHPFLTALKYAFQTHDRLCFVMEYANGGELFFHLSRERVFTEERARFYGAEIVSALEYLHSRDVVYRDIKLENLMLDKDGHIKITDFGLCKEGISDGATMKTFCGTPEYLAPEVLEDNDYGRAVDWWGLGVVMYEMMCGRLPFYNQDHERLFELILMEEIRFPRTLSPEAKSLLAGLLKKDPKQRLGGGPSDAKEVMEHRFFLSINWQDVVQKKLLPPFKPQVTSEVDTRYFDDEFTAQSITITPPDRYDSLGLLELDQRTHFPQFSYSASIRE

Compound | IC50 (AKT2) [nM] | IC50 (AKT1 E17K) [nM] | IC50 [1] [nM] | IC50 (AKT1 WT) [nM]
Nc1ncccc1-c1nc2ccc(OC3CC3)nc2n1-c1ccc2c(c1)CC[C@@H]2NC(=O)c1ccc(O)c(C=O)c1 [Example 32, N-[(1S)-5-[2-(2-aminopyridin-3-yl)-5-cyclopropoxyimidazo[4,5-b]pyridin-3-yl]-2,3-dihydro-1H-inden-1-yl]-3-formyl-4-hydroxybenzamide] | ≥ 2000 | 10 to 100 | 100 to 2000 | 100 to 2000
Cn1c(=O)[nH]c2c(C=O)cc(C(=O)N[C@H]3CCc4cc(-n5c(-c6cccnc6N)nc6ccc(-n7cccn7)nc65)ccc43)cc21 [Example 170, (S)—N-(5-(2-(2-aminopyridin-3-yl)-5-(1H-pyrazol-1-yl)-3H-imidazo[4,5-b]pyridin-3-yl)-2,3-dihydro-1H-inden-1-yl)-7-formyl-3-methyl-2-oxo-2,3-dihydro-1H-benzo[d]imidazole-5-carboxamide] | 100 to 2000 | < 10 | 10 to 100 | < 10
Nc1ncccc1-c1nc2ccc(-n3cccn3)nc2n1-c1ccc2c(c1)CC[C@@H]2NC(=O)c1cc(C=O)c(O)cc1F [Example 105, (S)—N-(5-(2-(2-aminopyridin-3-yl)-5-(1H-pyrazol-1-yl)-3H-imidazo[4,5-b]pyridin-3-yl)-2,3-dihydro-1H-inden-1-yl)-2-fluoro-5-formyl-4-hydroxybenzamide] | 100 to 2000 | 10 to 100 | 10 to 100 | 10 to 100
CN(C)c1ccn(-c2ccc3nc(-c4cccnc4N)n(-c4ccc5c(c4)CC[C@@H]5NC(=O)c4ccc(O)c(C=O)c4)c3n2)n1 [Example 114, (S)—N-(5-(2-(2-aminopyridin-3-yl)-5-(3-(dimethylamino)-1H-pyrazol-1-yl)-3H-imidazo[4,5-b]pyridin-3-yl)-2,3-dihydro-1H-inden-1-yl)-3-formyl-4-hydroxybenzamide] | 100 to 2000 | 10 to 100 | 10 to 100 | 10 to 100
Nc1ncccc1-c1nc2ccc(-c3nccnc3F)nc2n1-c1ccc2c(c1)CC[C@@H]2NC(=O)c1ccc(O)c(C=O)c1 [Example 109, N-[(1S)-5-[2-(2-aminopyridin-3-yl)-5-(3-fluoropyrazin-2-yl)imidazo[4,5-b]pyridin-3-yl]-2,3-dihydro-1H-inden-1-yl]-3-formyl-4-hydroxybenzamide] | 100 to 2000 | 10 to 100 | 100 to 2000 | 100 to 2000
Nc1ncccc1-c1nc2ccc(-n3nccn3)nc2n1-c1ccc2c(c1)CC[C@@H]2NC(=O)c1cc(F)c(O)c(C=O)c1 [Example 115, N-[(1S)-5-[2-(2-aminopyridin-3-yl)-5-(1,2,3-triazol-2-yl)imidazo[4,5-b]pyridin-3-yl]-2,3-dihydro-1H-inden-1-yl]-3-fluoro-5-formyl-4-hydroxybenzamide] | 100 to 2000 | 10 to 100 | 10 to 100 | 10 to 100
Nc1ncccc1-c1nc2ccc(-c3ccccc3)nc2n1-c1ccc2c(c1)C(=O)C[C@@H]2NC(=O)c1ccc(O)c(C=O)c1 [Example 74, N-[(1S)-5-[2-(2-aminopyridin-3-yl)-5-phenylimidazo[4,5-b]pyridin-3-yl]-3-oxo-1,2-dihydroinden-1-yl]-3-formyl-4-hydroxybenzamide] | 100 to 2000 | 10 to 100 | 100 to 2000 | 100 to 2000
Nc1ncccc1-c1nc2ccc(-n3cccn3)nc2n1-c1ccc2c(c1)CC[C@@H]2NC(=O)c1cc(C=O)c(O)c(C(F)(F)F)c1 [Example 100, N-[(1S)-5-[2-(2-aminopyridin-3-yl)-5-(pyrazol-1-yl)imidazo[4,5-b]pyridin-3-yl]-2,3-dihydro-1H-inden-1-yl]-3-formyl-4-hydroxy-5-(trifluoromethyl)benzamide] | 100 to 2000 | 10 to 100 | 100 to 2000 | 100 to 2000
Nc1ncccc1-c1nc2ccc(-c3ccccc3)nc2n1-c1ccc2c(c1)CC[C@@H]2NC(=O)c1cc(Cl)c(O)c(C=O)c1 [Example 11, N-[(1S)-5-[2-(2-aminopyridin-3-yl)-5-phenylimidazo[4,5-b]pyridin-3-yl]-2,3-dihydro-1H-inden-1-yl]-3-chloro-5-formyl-4-hydroxybenzamide] | 100 to 2000 | 10 to 100 | 100 to 2000 | 10 to 100

Other lines, results leading:

IC50 (AKT2) [nM] | IC50 (AKT1 E17K) [nM] | IC50 [1] [nM] | IC50 (AKT1 WT) [nM] | Compound
100 to 2000 | 10 to 100 | 10 to 100 | 10 to 100 | Cc1cnc(-c2ccc3nc(-c4cccnc4N)n(-c4ccc5c(c4)CC[C@@H]5NC(=O)c4cc(C=O)c(O)c(F)c4F)c3n2)s1 [Example 186, N-[(1S)-5-[2-(2-aminopyridin-3-yl)-5-(5-methyl-1,3-thiazol-2-yl)imidazo[4,5-b]pyridin-3-yl]-2,3-dihydro-1H-inden-1-yl]-2,3-difluoro-5-formyl-4-hydroxybenzamide]
10 to 100 | 10 to 100 | 100 to 2000 | 10 to 100 | CC(=O)c1cc(C(=O)N[C@H]2CCc3cc(-n4c(-c5cccnc5N)nc5ccc(-n6cccn6)nc54)ccc32)cc(C=O)c1O [Example 102, (S)-3-acetyl-N-(5-(2-(2-aminopyridin-3-yl)-5-(1H-pyrazol-1-yl)-3H-imidazo[4,5-b]pyridin-3-yl)-2,3-dihydro-1H-inden-1-yl)-5-formyl-4-hydroxybenzamide]
100 to 2000 | 100 to 2000 | 100 to 2000 | 10 to 100 | Nc1ncccc1-c1nc2ccc(-c3ccccc3)nc2n1-c1ccc2c(c1)CC[C@@H]2NC(=O)c1ccc(O)c(C=O)n1 [Example 89, (S)—N-(5-(2-(2-aminopyridin-3-yl)-5-phenyl-3H-imidazo[4,5-b]pyridin-3-yl)-2,3-dihydro-1H-inden-1-yl)-6-formyl-5-hydroxypicolinamide]
100 to 2000 | 100 to 2000 | ≥ 2000 | 100 to 2000 | Nc1ncccc1-c1nc2ccc(-c3ccccc3)nc2n1-c1ccc2c(c1)CC[C@@H]2NC(=O)c1ccc(C=O)c(O)c1 [Example 30, N-[(1S)-5-[2-(2-aminopyridin-3-yl)-5-phenylimidazo[4,5-b]pyridin-3-yl]-2,3-dihydro-1H-inden-1-yl]-4-formyl-3-hydroxybenzamide]
100 to 2000 | 10 to 100 | 100 to 2000 | 10 to 100 | Nc1ncccc1-c1nc2ccc(-n3cccn3)nc2n1-c1ccc2c(c1)C(O)C[C@@H]2NC(=O)c1ccc(O)c(C=O)c1 (single isomer, unassigned) [Example 98]
100 to 2000 | 10 to 100 | 10 to 100 | 10 to 100 | COc1cc(-n2cccn2)nc2c1nc(-c1cccnc1N)n2-c1ccc2c(c1)CC[C@@H]2NC(=O)c1cc(C=O)c(O)cc1F [Example 221, N-[(1S)-5-[2-(2-aminopyridin-3-yl)-7-methoxy-5-(pyrazol-1-yl)imidazo[4,5-b]pyridin-3-yl]-2,3-dihydro-1H-inden-1-yl]-2-fluoro-5-formyl-4-hydroxybenzamide]
100 to 2000 | 10 to 100 | 100 to 2000 | 100 to 2000 | COc1cc2nc(-c3cccnc3N)n(-c3ccc4c(c3)CC[C@@H]4NC(=O)c3ccc(O)c(C=O)c3)c2nc1-n1cccn1 [Example 215, N-[(1S)-5-[2-(2-aminopyridin-3-yl)-6-methoxy-5-(pyrazol-1-yl)imidazo[4,5-b]pyridin-3-yl]-2,3-dihydro-1H-inden-1-yl]-3-formyl-4-hydroxybenzamide]
100 to 2000 | 10 to 100 | 100 to 2000 | 10 to 100 | Nc1ncccc1-c1nc2ccc(-c3ccccc3)nc2n1-c1ccc2c(c1)CC[C@@H]2NC(=O)c1ccc(NC(=O)N2CCOCC2)c(C=O)c1 [Example 68, N-(4-{[(1S)-5-[2-(2-aminopyridin-3-yl)-5-phenylimidazo[4,5-b]pyridin-3-yl]-2,3-dihydro-1H-inden-1-yl]carbamoyl}-2-formylphenyl)morpholine-4-carboxamide]
100 to 2000 | 10 to 100 | 10 to 100 | 10 to 100 | Nc1ncccc1-c1nc2ccc(-c3ccn(C4CC4)n3)nc2n1-c1ccc2c(c1)CC[C@@H]2NC(=O)c1cc(C=O)c(O)cc1F [Example 240, N-[(1S)-5-[2-(2-aminopyridin-3-yl)-5-(1-cyclopropylpyrazol-3-yl)imidazo[4,5-b]pyridin-3-yl]-2,3-dihydro-1H-inden-1-yl]-2-fluoro-5-formyl-4-hydroxybenzamide]
100 to 2000 | 10 to 100 | 100 to 2000 | 10 to 100 | Cc1nc(-c2ccc3nc(-c4cccnc4N)n(-c4ccc5c(c4)CC[C@@H]5NC(=O)c4ccc(O)c(C=O)c4)c3n2)no1 [Example 173, N-[(1S)-5-[2-(2-aminopyridin-3-yl)-5-(5-methyl-1,2,4-oxadiazol-3-yl)imidazo[4,5-b]pyridin-3-yl]-2,3-dihydro-1H-inden-1-yl]-3-formyl-4-hydroxybenzamide]
100 to 2000 | < 10 | 10 to 100 | 10 to 100 | Nc1ncccc1-c1nc2ccc(-c3cnccn3)nc2n1-c1ccc2c(c1)CC[C@@H]2NC(=O)c1ccc(O)c(C=O)c1 [Example 29, N-[(1S)-5-[2-(2-aminopyridin-3-yl)-5-(pyrazin-2-yl)imidazo[4,5-b]pyridin-3-yl]-2,3-dihydro-1H-inden-1-yl]-3-formyl-4-hydroxybenzamide]
